The source of these data is patent publication US10112926B2 (priority 2014, dated 2018).

The target of one assay is mTOR (Homo sapiens (Human), UniProt P42345). To be noted: read-out: Assay G mTOR IC50.
A further assay addresses Vps34 (Homo sapiens (Human), UniProt Q8NEB9). The conditions noted are these: read-out: Assay C VPS34 IC50.
A further assay has as its target PI 4-kinase beta (Homo sapiens (Human), UniProt Q9UBF8). To be noted: read-out: Assay D PI4Kβ IC50.

Where a name gives a salt, the structure may show the parent alone.

Sequence of PI 4-kinase beta (Q9UBF8 whole entry): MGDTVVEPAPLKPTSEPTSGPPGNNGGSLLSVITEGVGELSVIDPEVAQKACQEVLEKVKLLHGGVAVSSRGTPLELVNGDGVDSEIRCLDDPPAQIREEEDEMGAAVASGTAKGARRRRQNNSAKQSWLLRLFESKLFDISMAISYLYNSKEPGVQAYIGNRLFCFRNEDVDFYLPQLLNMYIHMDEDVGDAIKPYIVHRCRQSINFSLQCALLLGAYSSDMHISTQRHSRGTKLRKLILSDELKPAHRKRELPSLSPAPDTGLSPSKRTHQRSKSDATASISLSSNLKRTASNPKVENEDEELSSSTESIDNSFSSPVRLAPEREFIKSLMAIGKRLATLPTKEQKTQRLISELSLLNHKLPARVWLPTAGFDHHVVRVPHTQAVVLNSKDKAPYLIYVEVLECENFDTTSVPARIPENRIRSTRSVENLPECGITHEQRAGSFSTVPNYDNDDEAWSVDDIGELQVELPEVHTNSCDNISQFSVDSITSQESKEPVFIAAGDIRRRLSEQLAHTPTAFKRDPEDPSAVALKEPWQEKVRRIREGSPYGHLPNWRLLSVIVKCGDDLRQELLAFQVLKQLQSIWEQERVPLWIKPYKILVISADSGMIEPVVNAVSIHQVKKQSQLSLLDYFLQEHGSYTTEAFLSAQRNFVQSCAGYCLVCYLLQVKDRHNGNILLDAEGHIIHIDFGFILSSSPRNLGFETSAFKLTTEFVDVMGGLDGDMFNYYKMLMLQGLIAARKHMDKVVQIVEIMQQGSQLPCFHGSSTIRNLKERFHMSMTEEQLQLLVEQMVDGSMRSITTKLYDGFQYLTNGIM
Sequence of Vps34 (Q8NEB9 whole entry): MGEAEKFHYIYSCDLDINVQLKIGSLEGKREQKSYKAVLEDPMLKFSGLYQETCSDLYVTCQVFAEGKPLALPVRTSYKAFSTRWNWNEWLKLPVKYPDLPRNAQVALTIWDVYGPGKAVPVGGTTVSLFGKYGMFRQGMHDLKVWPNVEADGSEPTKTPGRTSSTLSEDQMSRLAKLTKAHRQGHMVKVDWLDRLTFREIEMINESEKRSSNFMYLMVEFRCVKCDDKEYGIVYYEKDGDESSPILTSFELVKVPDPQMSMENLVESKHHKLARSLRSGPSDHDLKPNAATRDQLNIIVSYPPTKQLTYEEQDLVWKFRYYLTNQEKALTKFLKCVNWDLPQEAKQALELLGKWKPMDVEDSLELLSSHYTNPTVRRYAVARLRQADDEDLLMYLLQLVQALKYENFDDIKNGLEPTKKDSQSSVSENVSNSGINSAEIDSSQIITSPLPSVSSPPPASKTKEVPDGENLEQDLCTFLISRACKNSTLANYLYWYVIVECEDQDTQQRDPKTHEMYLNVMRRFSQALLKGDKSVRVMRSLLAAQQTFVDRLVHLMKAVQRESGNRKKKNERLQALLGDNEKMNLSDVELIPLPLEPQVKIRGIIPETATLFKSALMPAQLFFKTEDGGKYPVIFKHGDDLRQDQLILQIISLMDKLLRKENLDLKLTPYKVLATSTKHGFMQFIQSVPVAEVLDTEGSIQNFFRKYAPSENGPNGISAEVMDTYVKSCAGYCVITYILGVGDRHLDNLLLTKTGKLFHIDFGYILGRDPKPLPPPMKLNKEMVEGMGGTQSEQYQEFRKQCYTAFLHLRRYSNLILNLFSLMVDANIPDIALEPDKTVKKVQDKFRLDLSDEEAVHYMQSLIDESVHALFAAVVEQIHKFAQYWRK

As to `CCCONS(=O)(=O)c1ccc(C)c(-c2cnc(N)c(-c3nc(C)no3)c2)c1` [Example 44, 3-(6-Amino-5-(3-methyl-1,2,4-oxadiazol-5-yl)pyridin-3-yl)-4-methyl-N-propoxybenzenesulfonamide], the IC50 was over 10 µM on mTOR, over 10 µM at Vps34 and 3.55 µM on PI 4-kinase beta.
On to `Cc1noc(-c2cc(-c3cc(S(=O)(=O)N[C@H]4CC[C@H](O)CC4)ccc3C)cnc2N)n1` [Example 12, trans 3-[6-Amino-5-(3-methyl-[1,2,4]oxadiazol-5-yl)-pyridin-3-yl]-N-(4-hydroxy-cyclohexyl)-4-methyl-benzenesulfonamide, hydrochloride salt], for which the figures for the IC50 at mTOR, on Vps34 and at PI 4-kinase beta were over 10 µM, over 10 µM and 5.3 µM, respectively.
Consider `Cc1ccc(S(=O)(=O)NCC(C)(C)O)cc1-c1cnc(N)c(-c2nc(C(C)C)no2)c1` [Example 5.1, 3-(6-Amino-5-(3-isopropyl-1,2,4-oxadiazol-5-yl)pyridin-3-yl)-N-(2-hydroxy-2-methylpropyl)-4-methylbenzenesulfonamide hydrochloride], for which the 50% inhibitory concentration (IC50) on mTOR is 8.2 µM; on Vps34, over 10 µM; on PI 4-kinase beta, 4.4 µM.
Consider `Cc1ncc(-c2cc(-c3cc(S(=O)(=O)N[C@H]4CC[C@H](O)CC4)ccc3C)cnc2N)o1` [Example 98, 3-(6-amino-5-(2-methyloxazol-5-yl)pyridin-3-yl)-N-((1r,4r)-4-hydroxycyclohexyl)-4-methylbenzenesulfonamide hydrochloride], for which the IC50 on mTOR is 7.9 µM; at PI 4-kinase beta, 0.83 µM.
Consider `Cc1ccc(S(=O)(=O)NCCC(C)(C)O)cc1-c1cnc(N)c(-c2cnn(C)c2)c1` [Example 2, 3-(6-Amino-5-(1-methyl-1H-pyrazol-4-yl)pyridin-3-yl)-N-(3-hydroxy-3-methylbutyl)-4-methylbenzenesulfonamide], for which the IC50 at mTOR was over 9.1 µM; at Vps34, over 9.1 µM; at PI 4-kinase beta, 5.4 µM.
In the case of `Cc1cc(-c2cc(-c3cc(S(=O)(=O)NCC(C)(C)O)ccc3C)cnc2N)sn1` [Example 4.8, 3-(6-Amino-5-(3-methylisothiazol-5-yl)pyridin-3-yl)-N-(2-hydroxy-2-methylpropyl)-4-methyl-benzenesulfonamide hydrochloride], the half-maximal inhibitory concentration (IC50) was over 10 µM at mTOR, over 10 µM on Vps34 and 3.15 µM at PI 4-kinase beta.
For `Cc1noc(-c2cc(-c3cc(S(=O)(=O)N[C@H]4C[C@@H](O)C4)ccc3C)cnc2N)n1` [Example 5.5a, 3-(6-Amino-5-(3-methyl-1,2,4-oxadiazol-5-yl)pyridin-3-yl)-N-((1s,3s)-3-hydroxycyclobutyl)-4-methylbenzenesulfonamide], the IC50 at mTOR and at Vps34 was over 10 µM each time.
Regarding `Cc1cc(-c2cc(-c3cc(S(=O)(=O)NO[C@H]4C[C@H](O)C4)ccc3C)cnc2N)on1` [Example 95, trans-3-(6-amino-5-(3-methylisoxazol-5-yl)pyridin-3-yl)-N-((1r,3r)-3-hydroxycyclobutoxy)-4-methylbenzenesulfonamide], the concentration for half-maximal inhibition (IC50) was over 10 µM at mTOR, over 10 µM at Vps34 and 0.86 µM on PI 4-kinase beta.
As to `Cc1ccc(S(=O)(=O)NCC(C)(C)O)cc1-c1cnc(N)c(-c2nc(C(F)F)no2)c1` [Example 71, 3-(6-Amino-5-(3-(difluoromethyl)-1,2,4-oxadiazol-5-yl)pyridin-3-yl)-N-(2-hydroxy-2-methylpropyl)-4-methylbenzenesulfonamide hydrochloride], the figures for the IC50 on mTOR and on PI 4-kinase beta were over 10 µM and 10 µM, respectively.
As to `Cc1ccc(S(=O)(=O)NCC(C)(C)O)cc1-c1cnc(N)c(-c2cnoc2C)c1` [Example 62, 3-(6-Amino-5-(5-methylisoxazol-4-yl)pyridin-3-yl)-N-(2-hydroxy-2-methylpropyl)-4-methylbenzenesulfonamide], the concentration for half-maximal inhibition (IC50) on mTOR was over 10 µM; at PI 4-kinase beta it was 6.6 µM.
`Cc1cc(-c2cc(-c3cc(S(=O)(=O)NCC4(CO)CCCCC4)ccc3C)cnc2N)on1` [Example 37.3, 3-(6-Amino-5-(3-methylisoxazol-5-yl)pyridin-3-yl)-N-((1-(hydroxymethyl)cyclohexyl)methyl)-4-methylbenzenesulfonamide]: the IC50 is 3 µM at mTOR and over 10 µM at Vps34.
For `Cc1noc(-c2cc(-c3cc(S(=O)(=O)NCC4(O)CCC4)ccc3C)cnc2N)n1` [Example 37.15, 3-(6-Amino-5-(3-methyl-1,2,4-oxadiazol-5-yl)pyridin-3-yl)-N-((1-hydroxycyclobutyl)methyl)-4-methylbenzenesulfonamide], the results for the concentration for half-maximal inhibition (IC50) at mTOR, on Vps34 and on PI 4-kinase beta were over 10 µM, over 10 µM and 5.4 µM, respectively.
For `Cc1noc(-c2cc(-c3cc(S(=O)(=O)NCC4CCOC4)ccc3C)cnc2N)n1` (stereo not shown) [Example 29, 3-(6-Amino-5-(3-methyl-1,2,4-oxadiazol-5-yl)pyridin-3-yl)-4-methyl-N-((tetrahydrofuran-3-yl)methyl)benzenesulfonamide], the half-maximal inhibitory concentration (IC50) on mTOR was over 10 µM; on Vps34, over 10 µM; at PI 4-kinase beta, 9.9 µM.
In the case of `Cc1ccc(S(=O)(=O)NCCC(C)(C)O)cc1-c1cnc(N)c(-c2ccncc2)c1` [Example 18, 3-(2-Amino-[3,4′]bipyridinyl-5-yl)-N-(3-hydroxy-3-methyl-butyl)-4-methyl-benzenesulfonamide], the half-inhibitory concentration (IC50) at mTOR, at Vps34 and on PI 4-kinase beta was over 9.1 µM in each case.
As to `Cc1ncc(-c2cc(-c3cc(S(=O)(=O)NCCCO)ccc3C)cnc2N)s1` [Example 9, 3-[6-Amino-5-(2-methyl-thiazol-5-yl)-pyridin-3-yl]-N-(3-hydroxy-propyl)-4-methyl-benzenesulfonamide], the IC50 stood at 5.9 µM at mTOR, 0.89 µM at Vps34 and 1.92 µM on PI 4-kinase beta.
With `COC1(C)CN(S(=O)(=O)c2ccc(C)c(-c3cnc(N)c(-c4nc(C)no4)c3)c2)C1` [Example 37.2, 5-(5-((3-Methoxy-3-methylazetidin-1-yl)sulfonyl)-2-methylphenyl)-3-(3-methyl-1,2,4-oxadiazol-5-yl)pyridin-2-amine], the 50% inhibitory concentration (IC50) at mTOR and on PI 4-kinase beta was over 10 µM each time.
Consider `Cc1ncc(-c2cc(-c3cc(S(=O)(=O)N[C@H]4CC[C@H](O)CC4)ccc3C)cnc2N)s1` [Example 97, 3-(6-amino-5-(2-methylthiazol-5-yl)pyridin-3-yl)-N-((1r,4r)-4-hydroxycyclohexyl)-4-methylbenzenesulfonamide], for which the IC50 at mTOR turned out to be 6.5 µM; on Vps34 it was 3.8 µM; on PI 4-kinase beta, 1.34 µM.
On to `Cc1noc(-c2cc(-c3cc(S(=O)(=O)NCC4(C)COC4)ccc3C)cnc2N)n1` [Example 4.9, 3-(6-Amino-5-(3-methyl-1,2,4-oxadiazol-5-yl)pyridin-3-yl)-4-methyl-N-((3-methyloxetan-3-yl)methyl)benzene-sulfonamide], for which the half-inhibitory concentration (IC50) at mTOR, on Vps34 and on PI 4-kinase beta was over 10 µM in each case.
As for `Cc1ncc(-c2cc(-c3cc(S(=O)(=O)NCC(C)(C)O)ccc3C)cnc2N)s1` [Example 15, 3-[6-Amino-5-(2-methyl-thiazol-5-yl)-pyridin-3-yl]-N-(2-hydroxy-2-methyl-propyl)-4-methyl-benzenesulfonamide], the IC50 is 7.9 µM on mTOR and 1.62 µM at Vps34.
`Cc1cc(-c2cc(-c3cc(S(=O)(=O)NCCO)ccc3C)cnc2N)on1` [Example 73, 3-(6-Amino-5-(3-methylisoxazol-5-yl)pyridin-3-yl)-N-(2-hydroxyethyl)-4-methylbenzenesulfonamide]: the IC50 at mTOR and on Vps34 was over 10 µM in each case.
For the compound `Cc1noc(-c2cc(-c3cc(S(=O)(=O)NCC4CCCO4)ccc3C)cnc2N)n1` (stereo not shown) [Example 57, 3-(6-Amino-5-(3-methyl-1,2,4-oxadiazol-5-yl)pyridin-3-yl)-4-methyl-N-((tetrahydrofuran-2-yl)methyl)benzenesulfonamide], the half-inhibitory concentration (IC50) on mTOR was 2.4 µM; at PI 4-kinase beta it was over 10 µM.
On to `Cc1cc(-c2cc(-c3cc(S(=O)(=O)NCC4(C)COC4)ccc3C)cnc2N)on1` [Example 17, 3-[6-Amino-5-(3-methyl-isoxazol-5-yl)-pyridin-3-yl]-4-methyl-N-(3-methyl-oxetan-3-ylmethyl)-benzenesulfonamide hydrochloride], for which the 50% inhibitory concentration (IC50) on mTOR came to 8.5 µM; at Vps34, 8.1 µM.
Turning to `Cc1ncc(-c2cc(-c3cc(S(=O)(=O)NCCC(C)(C)O)ccc3C)cnc2N)s1` [Example 4, 3-(6-Amino-5-(2-methylthiazol-5-yl)pyridin-3-yl)-N-(3-hydroxy-3-methylbutyl)-4-methylbenzenesulfonamide], the IC50 on mTOR came to 2.63 µM; on PI 4-kinase beta, 1.44 µM.
`CCc1noc(-c2cc(-c3cc(S(=O)(=O)NCC(C)(C)O)ccc3C)cnc2N)n1` [Example 5.3, 3-(6-Amino-5-(3-ethyl-1,2,4-oxadiazol-5-yl)pyridin-3-yl)-N-(2-hydroxy-2-methylpropyl)-4-methylbenzenesulfon-amide hydrochloride]: the IC50 at mTOR and at Vps34 was over 10 µM each time.
As to `Cc1cc(-c2cc(-c3cc(S(=O)(=O)NCCC(C)(C)O)ccc3C)cnc2N)ccn1` [Example 16, 3-(2-Amino-2′-methyl-[3,4′]bipyridinyl-5-yl)-N-(3-hydroxy-3-methyl-butyl)-4-methyl-benzenesulfonamide], the half-inhibitory concentration (IC50) on mTOR and at Vps34 was over 9.1 µM in each case.
Turning to `Cc1noc(-c2cc(-c3cc(S(=O)(=O)NC4CC(O)C4)ccc3C)cnc2N)n1` (mixture of isomers) [Example 5.5, Diastereomers of 3-(6-Amino-5-(3-methyl-1,2,4-oxadiazol-5-yl)pyridin-3-yl)-N-(3-hydroxycyclobutyl)-4-methylbenzene sulfonamide hydrochloride], the 50% inhibitory concentration (IC50) at mTOR and on Vps34 was over 10 µM throughout.
